Data taken from ChEMBL document CHEMBL1909046, “DrugMatrix in vitro pharmacology data”.

Legend:
[1] = target: Mitogen-activated protein kinase 3 (Homo sapiens, UniProt P27361); assay: DRUGMATRIX: Protein Serine/Threonine Kinase, ERK1 enzyme inhibition (substrate: Myelin Basic Protein); parameters: species or system Escherichia coli; settings: Not Active = under 50% inhibition at 10 µM
[2] = target: cGMP-specific 3',5'-cyclic phosphodiesterase (Homo sapiens, UniProt O76074); assay: DRUGMATRIX: Phosphodiesterase PDE5 enzyme inhibition (substrate: [3H]cGMP + cGMP); assay type: tissue-based; settings: platelet; Not Active = under 50% inhibition at 10 µM
[3] = target: Melanocortin receptor 4 (Homo sapiens, UniProt P32245); assay type: cell membranes, Membrane; settings: hek293; note: in other assays of this panel Not Active means under 50% inhibition at 10 µM
Melanocortin receptor 4, sequence (P32245 whole entry): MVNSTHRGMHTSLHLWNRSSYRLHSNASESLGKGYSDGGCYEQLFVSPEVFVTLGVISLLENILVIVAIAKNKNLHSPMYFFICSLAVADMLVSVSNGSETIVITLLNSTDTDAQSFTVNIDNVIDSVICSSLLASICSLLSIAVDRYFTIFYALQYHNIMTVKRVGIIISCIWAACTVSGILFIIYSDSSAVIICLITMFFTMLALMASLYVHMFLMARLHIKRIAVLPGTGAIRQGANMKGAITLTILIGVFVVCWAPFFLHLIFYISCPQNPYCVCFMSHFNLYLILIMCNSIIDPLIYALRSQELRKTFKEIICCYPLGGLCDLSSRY

[4] = target: T1, 3-hydroxy-3-methylglutaryl-coenzyme A reductase (Homo sapiens, UniProt P04035); parameters: species or system Escherichia coli;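 note: enzyme inhibition assay of HMG-CoA reductase using radiolabeled [14C]HMG-CoA as substrate; in other assays of this panel Not Active means under 50% inhibition at 10 µM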
T1 sequence (P04035 whole entry): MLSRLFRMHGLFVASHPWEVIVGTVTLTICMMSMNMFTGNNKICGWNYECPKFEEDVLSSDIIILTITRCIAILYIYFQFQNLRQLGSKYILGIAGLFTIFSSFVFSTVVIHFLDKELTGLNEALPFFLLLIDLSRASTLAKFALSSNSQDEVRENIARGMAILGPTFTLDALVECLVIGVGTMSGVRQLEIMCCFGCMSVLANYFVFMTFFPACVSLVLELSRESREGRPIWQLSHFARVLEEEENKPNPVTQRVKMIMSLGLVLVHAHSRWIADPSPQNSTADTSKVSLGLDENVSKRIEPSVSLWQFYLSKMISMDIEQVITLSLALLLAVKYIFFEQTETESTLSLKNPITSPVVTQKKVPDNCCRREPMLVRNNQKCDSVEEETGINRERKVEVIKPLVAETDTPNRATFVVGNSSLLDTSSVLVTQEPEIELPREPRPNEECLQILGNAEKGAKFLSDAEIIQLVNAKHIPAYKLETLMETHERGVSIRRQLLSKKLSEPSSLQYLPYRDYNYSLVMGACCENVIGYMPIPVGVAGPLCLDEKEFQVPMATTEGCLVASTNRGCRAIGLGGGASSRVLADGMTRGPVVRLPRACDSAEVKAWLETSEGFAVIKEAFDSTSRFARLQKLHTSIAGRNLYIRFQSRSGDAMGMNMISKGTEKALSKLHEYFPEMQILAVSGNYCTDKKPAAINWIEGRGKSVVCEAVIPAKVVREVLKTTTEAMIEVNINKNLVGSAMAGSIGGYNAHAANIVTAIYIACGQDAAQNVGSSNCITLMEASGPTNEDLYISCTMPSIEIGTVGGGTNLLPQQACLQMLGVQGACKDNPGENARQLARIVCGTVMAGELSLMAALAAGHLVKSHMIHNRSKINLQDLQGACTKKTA

[5] = DRUGMATRIX: Glutamate, AMPA radioligand binding (ligand: [3H] AMPA); assay type: cell membranes, Rattus norvegicus, Wistar, Cerebral cortex, Membrane; settings: Not Active = under 50% inhibition at 10 µM
[6] = target: 5-hydroxytryptamine receptor 1B (Rattus norvegicus, UniProt P28564); assay type: cell membranes, Wistar, Cerebral cortex, Membrane; note: in other assays of this panel Not Active means under 50% inhibition at 10 µM
5-hydroxytryptamine receptor 1B, sequence (P28564 whole entry): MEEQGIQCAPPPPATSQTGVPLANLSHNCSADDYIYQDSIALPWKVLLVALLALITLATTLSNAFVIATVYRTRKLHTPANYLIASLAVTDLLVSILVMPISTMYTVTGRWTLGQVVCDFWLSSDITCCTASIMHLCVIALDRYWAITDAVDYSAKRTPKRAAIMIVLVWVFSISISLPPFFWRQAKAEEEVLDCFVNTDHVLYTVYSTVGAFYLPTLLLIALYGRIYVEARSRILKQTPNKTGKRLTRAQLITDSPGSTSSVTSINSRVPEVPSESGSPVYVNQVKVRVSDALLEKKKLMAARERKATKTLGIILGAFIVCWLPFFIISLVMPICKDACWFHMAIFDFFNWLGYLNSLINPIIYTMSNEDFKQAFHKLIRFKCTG

[7] = target: T2, Alpha-2C adrenergic receptor (Homo sapiens, UniProt P18825); assay: DRUGMATRIX: Adrenergic Alpha-2C radioligand binding (ligand: [3H] MK-912); assay type: cell membranes, Sf9, Membrane; settings: sf9
T2 sequence (P18825 whole entry): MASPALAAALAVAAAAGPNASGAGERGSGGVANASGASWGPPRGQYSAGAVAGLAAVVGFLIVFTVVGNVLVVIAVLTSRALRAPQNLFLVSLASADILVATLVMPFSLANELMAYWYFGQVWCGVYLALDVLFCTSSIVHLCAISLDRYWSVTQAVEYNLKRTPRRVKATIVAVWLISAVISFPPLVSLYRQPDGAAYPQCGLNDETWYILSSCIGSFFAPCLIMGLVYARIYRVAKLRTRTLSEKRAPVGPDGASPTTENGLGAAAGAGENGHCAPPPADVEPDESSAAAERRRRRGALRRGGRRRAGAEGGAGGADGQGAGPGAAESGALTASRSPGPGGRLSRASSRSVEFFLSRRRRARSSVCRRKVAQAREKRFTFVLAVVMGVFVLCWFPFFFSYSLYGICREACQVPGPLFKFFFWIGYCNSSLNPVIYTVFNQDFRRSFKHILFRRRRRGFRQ

[8] = target: T3, Endothelin-1 receptor (Homo sapiens, UniProt P25101); assay type: cell membranes, Membrane; settings: cho-k1; note: in other assays of this panel Not Active means under 50% inhibition at 10 µM
T3 sequence (P25101 whole entry): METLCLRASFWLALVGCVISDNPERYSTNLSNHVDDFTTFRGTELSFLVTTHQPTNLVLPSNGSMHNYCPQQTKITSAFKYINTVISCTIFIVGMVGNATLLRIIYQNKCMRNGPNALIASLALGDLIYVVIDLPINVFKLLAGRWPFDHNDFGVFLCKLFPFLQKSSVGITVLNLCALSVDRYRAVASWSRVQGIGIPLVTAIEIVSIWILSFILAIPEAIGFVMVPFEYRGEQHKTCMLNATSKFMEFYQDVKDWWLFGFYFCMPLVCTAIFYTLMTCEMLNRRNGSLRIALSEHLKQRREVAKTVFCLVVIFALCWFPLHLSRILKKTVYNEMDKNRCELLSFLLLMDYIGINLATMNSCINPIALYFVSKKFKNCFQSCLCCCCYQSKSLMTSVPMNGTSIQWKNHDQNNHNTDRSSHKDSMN

Mitogen-activated protein kinase 3, sequence (P27361 whole entry): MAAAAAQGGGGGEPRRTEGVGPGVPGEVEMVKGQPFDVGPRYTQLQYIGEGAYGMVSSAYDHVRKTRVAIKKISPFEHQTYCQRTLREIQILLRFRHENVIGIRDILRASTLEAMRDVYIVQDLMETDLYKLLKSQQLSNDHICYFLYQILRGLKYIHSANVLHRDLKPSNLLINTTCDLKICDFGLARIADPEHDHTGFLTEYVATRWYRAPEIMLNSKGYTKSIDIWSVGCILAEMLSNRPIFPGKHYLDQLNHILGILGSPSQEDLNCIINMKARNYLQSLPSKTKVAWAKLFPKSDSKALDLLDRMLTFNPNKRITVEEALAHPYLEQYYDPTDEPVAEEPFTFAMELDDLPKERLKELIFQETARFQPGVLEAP

COc1ccc2[nH]c([S+]([O-])Cc3ncc(C)c(OC)c3C)nc2c1 (centres undefined) [OMEPRAZOLE]
Not Active: IC50 [1] | IC50 [2] | IC50 [3] | IC50 [4] | IC50 [5] | Ki [5] | IC50 [6] | IC50 [7] | IC50 [8]

Cc1nccn1CC1CCc2c(c3ccccc3n2C)C1=O (centres undefined) [ONDANSETRON]
Not Active: IC50 [1] | IC50 [2] | IC50 [3] | IC50 [4] | IC50 [5] | Ki [5] | IC50 [6] | IC50 [7] | IC50 [8]

CCn1cc(C(=O)O)c(=O)c2cc(F)c(N3CCN(C)CC3)cc21 [PEFLOXACIN]
Not Active: IC50 [1] | IC50 [2] | IC50 [3] | IC50 [4] | IC50 [5] | Ki [5] | IC50 [6] | IC50 [7] | IC50 [8]

CCCCOc1ccc(OCCCN2CCOCC2)cc1 [PRAMOXINE]
Not Active: IC50 [1] | IC50 [2] | IC50 [3] | IC50 [4] | IC50 [5] | Ki [5] | IC50 [6] | IC50 [7] | IC50 [8]

O=C(C1CCCCC1)N1CC(=O)N2CCc3ccccc3C2C1 (centres undefined) [PRAZIQUANTEL]
Not Active: IC50 [1] | IC50 [2] | IC50 [3] | IC50 [4] | IC50 [5] | Ki [5] | IC50 [6] | IC50 [7] | IC50 [8]

CCN(CC)CCOC(=O)c1ccc(N)cc1 [PROCAINE]
Not Active: IC50 [1] | IC50 [2] | IC50 [3] | IC50 [4] | IC50 [5] | Ki [5] | IC50 [6] | IC50 [7] | IC50 [8]

CCCN(CCC)C(=O)C(CCC(=O)O)NC(=O)c1ccccc1 (centres undefined) [PROGLUMIDE]
Not Active: IC50 [1] | IC50 [2] | IC50 [3] | IC50 [4] | IC50 [5] | Ki [5] | IC50 [6] | IC50 [7] | IC50 [8]

NC(=O)c1cnccn1 [PYRAZINAMIDE]
Not Active: IC50 [1] | IC50 [2] | IC50 [3] | IC50 [4] | IC50 [5] | Ki [5] | IC50 [6] | IC50 [7] | IC50 [8]

OC(CCN1CCCCC1)(c1ccccc1)C1CCCCC1 (centres undefined) [TRIHEXYPHENIDYL]
Not Active: IC50 [1] | IC50 [2] | IC50 [3] | IC50 [4] | IC50 [5] | Ki [5] | IC50 [6] | IC50 [7] | IC50 [8]

Cc1cc2cc3c(C)cc(=O)oc3c(C)c2o1 [TRIOXSALEN]
Not Active: IC50 [1] | IC50 [2] | IC50 [3] | IC50 [4] | IC50 [5] | Ki [5] | IC50 [6] | IC50 [7] | IC50 [8]

CCCC(CCC)C(=O)O [VALPROIC ACID]
Not Active: IC50 [1] | IC50 [2] | IC50 [3] | IC50 [4] | IC50 [5] | Ki [5] | IC50 [6] | IC50 [7] | IC50 [8]

CCC1=C[C@@H]2CN(C1)Cc1c([nH]c3ccccc13)[C@@](C(=O)OC)(c1cc3c(cc1OC)N(C)[C@H]1[C@@](O)(C(=O)OC)[C@H](OC(C)=O)[C@]4(CC)C=CCN5CC[C@]31[C@@H]54)C2 [VINORELBINE]
Not Active: IC50 [1] | IC50 [2] | IC50 [3] | IC50 [4] | IC50 [5] | Ki [5] | IC50 [6] | IC50 [7] | IC50 [8]

CADMIUM DICHLORIDE
Not Active: IC50 [1] | Ki [1] | IC50 [2] | Ki [2] | IC50 [3] | Ki [3] | IC50 [4] | Ki [4] | IC50 [5] | Ki [5] | IC50 [6] | Ki [6] | IC50 [7] | Ki [7] | IC50 [8] | Ki [8]
